Measurements: article PMC4331264 (Biochimica et biophysica acta, 2015)
Like-named read-outs stand apart in the source and are kept apart here.

Columns and labels:
[1] = molecular target: T1, Ste2p-FT-HT (Saccharomyces cerevisiae, UniProt D6VTK4, C252S/C59S); type: binding; conditions: [3H]α-factor 5 nM; novobiocin 10^−4 M to 10^−11 M; 30 min on ice
[2] = molecular target: T1, Ste2p-FT-HT; type: binding; conditions: read-out: cross-linking of [Bio-DOPA]13-mer, % of control, novobiocin 5 mM, [Bio-DOPA]13-mer 10 μM
[3] = system: Ste2p; conditions: cited from earlier work
[4] = system: Ste2p-FT-HT signalling in LM102 cells (FUS1-lacZ); assay: FUS1-lacZ reporter gene assay; type: cell-based, Saccharomyces cerevisiae; conditions: for FUS1-lacZ reporter gene activity of peptide alone: peptide alone (30 μM), absence of α-factor; for increase in FUS1-lacZ reporter gene activity over α-factor alone: α-factor 50 nM plus peptide 30 μM, 90 min, 30°C, mean of three determinations
[5] = system: Saccharomyces cerevisiae LM102 cells expressing Ste2p-FT-HT; assay: Growth arrest; type: cell-based; conditions: for halo area in presence of novobiocin: novobiocin 2.2 mg/4.5 ml Noble agar-cell mixture; for growth arrest activity of peptide alone: peptide alone 15 μg/disk, no α-factor; for halo (zone of growth inhibition) area on co-spotting with α-factor: α-factor 0.1 μg/disk plus peptide 15 μg/disk, three replicates
[6] = molecular target: T1, Ste2p-FT-HT; type: binding; conditions: [Bio-DOPA]11-mer 85 μM
[7] = system: Ste2p; conditions: cited from earlier work; remark: listed apart in the source

T1 sequence (D6VTK4 whole entry C59S/C252S): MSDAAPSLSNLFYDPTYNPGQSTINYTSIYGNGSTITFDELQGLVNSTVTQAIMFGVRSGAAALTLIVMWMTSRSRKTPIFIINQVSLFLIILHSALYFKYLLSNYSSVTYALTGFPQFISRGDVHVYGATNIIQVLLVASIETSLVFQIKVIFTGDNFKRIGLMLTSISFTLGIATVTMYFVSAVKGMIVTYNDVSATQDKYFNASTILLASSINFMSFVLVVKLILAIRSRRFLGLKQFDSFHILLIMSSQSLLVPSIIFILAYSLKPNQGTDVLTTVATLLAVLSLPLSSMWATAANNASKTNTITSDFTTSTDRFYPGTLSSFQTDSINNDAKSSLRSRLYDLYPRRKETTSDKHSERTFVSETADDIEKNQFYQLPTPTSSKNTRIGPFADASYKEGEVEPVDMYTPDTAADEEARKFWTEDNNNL

## CO[C@@H]1[C@@H](OC(N)=O)[C@@H](O)[C@H](Oc2ccc3c(O)c(NC(=O)c4ccc(O)c(CC=C(C)C)c4)c(=O)oc3c2C)OC1(C)C [novobiocin]
[1]
  competition with [3H]α-factor for binding to Ste2p-FT-HT: did not prevent α-factor binding to the receptor
[2]; average over 3 replicate blots
  remaining activity at 5000 µM: 118%
[2]; blot in Fig. 5
  remaining activity at 5000 µM: 136%
[3]; S. cerevisiae strain supersensitive to α-factor
  agonistic activity in growth arrest assays: weak agonistic activity
[4]; 25 nM α-factor, repeated three times
  FUS1-lacZ response to novobiocin in presence of α-factor: dose-dependent increase in activity up to 12.5 μM
[4]; no α-factor, concentrations up to 37.5 μM
  FUS1-lacZ reporter gene activity, novobiocin by itself: failed to increase reporter gene activity
[4]; no α-factor, up to 400 μM, data not shown
  FUS1-lacZ reporter gene activity, novobiocin by itself, higher amounts: failed to stimulate reporter gene activity
[5]; novobiocin by itself, up to 2.2 mg/disk
  intrinsic agonistic activity in growth arrest assay: no measurable, intrinsic agonistic activity
[5]; α-factor 10 ng spotted directly onto lawn containing novobiocin 2.2 mg/lawn
  increase of halo area in presence of novobiocin, without paper disk: 45%
[5]; α-factor 0.1 μg/disk
  halo area in presence of novobiocin: 155 ± 24 mm^2
[5]; α-factor 0.2 μg/disk
  halo area in presence of novobiocin: 273 ± 14 mm^2
[6]; between 10 and 50 mM novobiocin, Fig. 6
  maximal inhibition of [Bio-DOPA]11-mer cross-linking: ~ 90%
[6]; read-out: labeling (cross-linking of [Bio-DOPA]11-mer), % of control level, novobiocin 5 mM, average over 3 replicate blots
  remaining activity at 5000 µM: 26%

## DOPA-HWLQLK(BiotinACA)PGQP [[Bio-DOPA]11-mer, [DOPA^1, K^7 (BiotinACA),desM^12desY^13] α-factor]
[4]
  FUS1-lacZ reporter gene activity of peptide alone: no intrinsic biological activity
  increase in FUS1-lacZ reporter gene activity over α-factor alone: approximately 2 fold
[5]
  growth arrest activity of peptide alone: no intrinsic biological activity
  halo (zone of growth inhibition) area on co-spotting with α-factor: 309 ± 27 mm^2

## WHWLQLKPGQP [11-mer]
[7]
  competition for binding with α-factor: did not compete for binding with α-factor
[7]; wild-type yeast strain
  influence on affinity of the receptor for α-factor: did not influence the affinity of the receptor for the ligand
[3]; wild-type yeast strain
  innate biological activity: no innate biological activity
[3]; yeast mutant supersensitive to the ligand
  agonist activity in supersensitive mutant: very weak agonist
[4]
  FUS1-lacZ reporter gene activity of peptide alone: did not stimulate reporter gene activity over control levels
  increase in FUS1-lacZ reporter gene activity over α-factor alone: 2.5 fold
[5]
  growth arrest activity of peptide alone: no biological activity
  halo (zone of growth inhibition) area on co-spotting with α-factor: 382 ± 36 mm^2

## [DOPA^1, K^7 (BiotinACA)] α-factor [[Bio-DOPA]13-mer]
[3]; binds the orthosteric site of the receptor
  biological activity: retains biological activity
